Test results reported in patent publication US20220110318A1, “COMPOSITIONS AND METHODS FOR POLLEN STORAGE AND PRESERVATION” (PIONEER HI-BRED INTERNATIONAL, INC., priority 2018, published 2022).

How the values were obtained:
maize pollen [1] = assay: Protective compounds: prevention of pollen bursting on germination media; format: cell-based; settings: loose pollen soaked 20 minutes, compared with fresh pollen without protection
Procedure: In this example, various putative protective compounds were evaluated for their efficacy in preventing pollen from bursting on germination media. Nine different chemical treatments were applied to loose pollen shed from maize plants. Pollen was soaked in chemical solution for 20 minutes and then placed on media to observe the impact on pollen viability and compared with fresh pollen without protection as control.

maize pollen [2] = assay: Pollen tube formation with germination media comprising surfactant; format: cell-based; settings: surfactant at both 0.01% and 0.1% in germination media, pollen stored 1° C. for a day, within two hours
Procedure: Maize pollen was stored in 326C media with 1000 mM Sucrose and 500 mM Betaine at a pH of 9.0. Pollen was stored at 1° C. for a day. After this time period, germination medias comprising surfactant were added in amounts up to five times the volume of storage media. Surfactant conditions tested were 0.1% Tween 20, 0.01% Tween 20, 0.1% Pluronic F68, and 0.01% Pluronic F68 (final concentration). Pollen was observed microscopically prior to replacement of media and two hours after replacement. Pluronic F68, also known as poloxamer 188, is a non-ionic surfactant, a member of a class of polaxamers comprising non-ionic triblock copolymers composed of a central hydrophobic chain of polyoxypropylene flanked by two hydrophilic chains of polyoxyethylene.

| Compound | Preventing pollen from bursting on germination media (maize pollen [1]) | Pollen tube formation (maize pollen [2]) |
| --- | --- | --- |
| C[S+](C)[O-] [5% DMSO, DMSO] | did not prevent pollen from bursting | – |
| Tween 20 | – | lysis but no pollen tube formation |
